Data as given in patent publication US8067411B2, “Compounds” (AstraZeneca AB, priority 2006, dated 2011).

What follows are compounds tested against T1, Recombinant human TLR7 (Homo sapiens, UniProt Q9NYK1) (assay: Human TLR7 assay (SEAP reporter in HEK293 cells)). Details: log of the minimal effective concentration of compound to induce SEAP release; HEK293 pNiFty2-SEAP reporter cell line, overnight incubation at 37° C., 0.1% (v/v) DMSO.
T1 construct: expressed in transfected cells; host or cells: HEK293 cell line stably expressing the pNiFty2-SEAP reporter plasmid; TLR7 in pUNO vector, blasticidin selection
T1 sequence (Q9NYK1 27-1049): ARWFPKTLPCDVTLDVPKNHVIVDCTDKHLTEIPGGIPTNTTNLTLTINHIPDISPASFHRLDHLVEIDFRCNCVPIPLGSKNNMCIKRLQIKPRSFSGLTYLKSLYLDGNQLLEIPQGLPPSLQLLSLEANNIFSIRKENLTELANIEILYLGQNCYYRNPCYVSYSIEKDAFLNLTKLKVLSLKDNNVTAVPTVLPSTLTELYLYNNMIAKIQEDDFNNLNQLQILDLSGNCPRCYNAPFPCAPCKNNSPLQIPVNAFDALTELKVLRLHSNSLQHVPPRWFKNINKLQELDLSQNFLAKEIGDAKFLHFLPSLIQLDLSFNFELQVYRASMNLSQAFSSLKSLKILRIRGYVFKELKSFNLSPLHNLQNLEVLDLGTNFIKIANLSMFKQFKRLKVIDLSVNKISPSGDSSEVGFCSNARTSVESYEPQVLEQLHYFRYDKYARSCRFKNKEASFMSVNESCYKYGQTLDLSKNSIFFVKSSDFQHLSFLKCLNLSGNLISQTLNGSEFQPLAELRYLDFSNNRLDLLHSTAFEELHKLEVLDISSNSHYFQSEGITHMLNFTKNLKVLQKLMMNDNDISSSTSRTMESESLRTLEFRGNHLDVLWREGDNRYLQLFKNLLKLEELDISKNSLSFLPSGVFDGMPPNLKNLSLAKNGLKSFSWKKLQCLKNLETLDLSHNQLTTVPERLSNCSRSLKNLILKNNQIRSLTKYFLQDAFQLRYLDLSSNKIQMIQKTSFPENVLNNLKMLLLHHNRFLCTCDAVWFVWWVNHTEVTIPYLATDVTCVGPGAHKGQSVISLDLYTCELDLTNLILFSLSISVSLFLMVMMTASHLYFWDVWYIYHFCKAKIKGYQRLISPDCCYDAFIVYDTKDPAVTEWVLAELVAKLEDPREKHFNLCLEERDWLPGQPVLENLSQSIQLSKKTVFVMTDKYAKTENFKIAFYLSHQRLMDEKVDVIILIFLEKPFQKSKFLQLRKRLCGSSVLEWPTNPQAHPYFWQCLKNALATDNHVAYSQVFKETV
Assay type: cell-based
Source text: Recombinant human TLR7 was stably expressed in a HEK293 cell line already stably expressing the pNiFty2-SEAP reporter plasmid; integration of the reporter gene was maintained by selection with the antibiotic zeocin. The most common variant sequence of human TLR7 (represented by the EMBL sequence AF240467) was cloned into the mammalian cell expression vector pUNO and transfected into this reporter cell-line. Transfectants with stable expression were selected using the antibiotic blasticidin. In this reporter cell-line, expression of secreted alkaline phosphatase (SEAP) is controlled by an NFkB/ELAM-1 composite promoter comprising five NFkB sites combined with the proximal ELAM-1 promoter. TLR signaling leads to the translocation of NFkB and activation of the promoter results in expression of the SEAP gene. TLR7-specific activation was assessed by determining the level of SEAP produced following overnight incubation of the cells at 37° C. with the standard compound in the presence of 0.1% (v/v) dimethylsulfoxide (DMSO). Concentration dependent induction of SEAP production by compounds was expressed as the log of the minimal effective concentration of compound to induce SEAP release (pMEC).

Question: With `CCCCOc1nc(N)c2[nH]c(=O)n(CCCN(CCCN3CCOCC3)Cc3ccc(SC)cc3)c2n1` [Example 8, 6-Amino-2-butoxy-9-{3-[[4-(methylthio)benzyl] (3-morpholin-4-ylpropyl)amino]propyl}-7,9-dihydro-8H-purin-8-one] as the compound, how does the pMEC read?
Answer: The pMEC was 7.2.

Question: For `CCCCOc1nc(N)c2[nH]c(=O)n(CCCN(CCCN3CCOCC3)Cc3cc(OC)cc(OC)c3)c2n1` [Example 12, 6-Amino-2-butoxy-9-{3-[(3,5-dimethoxybenzyl)(3-morpholin-4-ylpropyl)amino]propyl}-7,9-dihydro-8H-purin-8-one], which pMEC is on record?
Answer: Its pMEC is greater than 7.7.

Question: Which pMEC does the source give for `CCCCOc1nc(N)c2[nH]c(=O)n(CCCN(CCCN3CCOCC3)Cc3ccc(-n4cncn4)cc3)c2n1` [Example 16, 6-Amino-2-butoxy-9-(3-{(3-morpholin-4-ylpropyl)[4-(1H-1,2,4-triazol-1-yl)benzyl]amino}propyl)-7,9-dihydro-8H-purin-8-one] here?
Answer: The pMEC was 7.4.
